According to patent US20140011799A1 (Bristol-Myers Squibb Company, priority 2012, published 2014):

Assays:
hepatic lipase (HL) = biological target: T1, hepatic lipase (HL) (Homo sapiens, UniProt P11150); experiment: Hepatic lipase (HL) enzymatic assay, fluorescent substrate A10070 in DMPG vesicles; type: biochemical; conditions: HL partially purified from conditioned media of COS cells; compound preincubated 30 min at 37° C; read-out: HL IC50
T1 construct: made in house; host or cells: COS cells (conditioned medium, partially purified)
T1 sequence (P11150 23-499): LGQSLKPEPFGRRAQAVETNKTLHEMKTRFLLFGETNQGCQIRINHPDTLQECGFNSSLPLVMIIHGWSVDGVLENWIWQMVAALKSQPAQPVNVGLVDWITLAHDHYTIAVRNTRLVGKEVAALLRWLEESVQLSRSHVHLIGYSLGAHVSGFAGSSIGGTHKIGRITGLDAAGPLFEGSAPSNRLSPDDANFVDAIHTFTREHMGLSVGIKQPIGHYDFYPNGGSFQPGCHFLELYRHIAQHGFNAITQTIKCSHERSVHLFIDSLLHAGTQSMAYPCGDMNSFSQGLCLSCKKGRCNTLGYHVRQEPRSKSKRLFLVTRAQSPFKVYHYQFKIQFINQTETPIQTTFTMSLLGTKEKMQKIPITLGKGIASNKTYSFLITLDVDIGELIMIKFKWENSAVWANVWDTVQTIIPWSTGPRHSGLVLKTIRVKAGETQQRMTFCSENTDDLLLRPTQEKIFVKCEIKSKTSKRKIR
How it was run: (§1)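 Compounds were preincubated with enzyme for 30 min at 37° C before FRET-substrate vesicles (A10070 in DMPG, 0.11 mole fraction) were added. Reaction rates were obtained from the 300–900 sec slope of fluorescence at 490/530 nm.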

Endothelial lipase (EL) = biological target: T2, Endothelial lipase (EL) (Homo sapiens, UniProt Q9Y5X9); experiment: Endothelial lipase (EL) enzymatic assay, fluorescent substrate A10070 in DMPG vesicles; type: biochemical; conditions: EL from conditioned media of HT-1080 cells; compound preincubated 30 min at 37° C; read-out: EL IC50
T2 construct: HT-1080 cells that were transformed using RAGE technology (Athersys) to overexpress endogenous EL; endogenous in cells; conditioned medium used
T2 sequence (Q9Y5X9 21-500): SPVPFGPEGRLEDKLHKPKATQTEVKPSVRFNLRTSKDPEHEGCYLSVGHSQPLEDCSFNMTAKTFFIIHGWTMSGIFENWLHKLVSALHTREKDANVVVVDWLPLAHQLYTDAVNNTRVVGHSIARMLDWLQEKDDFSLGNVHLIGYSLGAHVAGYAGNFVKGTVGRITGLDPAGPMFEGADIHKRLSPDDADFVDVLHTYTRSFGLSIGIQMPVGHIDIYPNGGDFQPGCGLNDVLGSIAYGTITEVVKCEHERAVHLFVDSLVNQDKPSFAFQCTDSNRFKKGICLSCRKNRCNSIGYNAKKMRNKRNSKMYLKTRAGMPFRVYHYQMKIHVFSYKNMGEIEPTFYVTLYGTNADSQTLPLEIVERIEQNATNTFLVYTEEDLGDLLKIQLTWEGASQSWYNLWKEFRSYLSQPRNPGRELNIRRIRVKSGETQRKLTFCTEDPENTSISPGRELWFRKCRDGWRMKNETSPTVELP
How it was run: as §1

IC50 (hepatic lipase (HL)) [nM] | IC50 (Endothelial lipase (EL)) [nM] | SMILES
178 | 14 | NCCS(=O)(=O)C(c1nnc(CNS(N)(=O)=O)o1)c1nc2ccc(-c3ccc(C(=O)N4CCOCC4)cc3)cc2s1 (centres unmarked) [Example 183, N-{[5-([(2-Aminoethyl)sulfonyl]{6-[4-(4-morpholinylcarbonyl)phenyl]-1,3-benzothiazol-2-yl}methyl)-1,3,4-oxadiazol-2-yl]methyl}sulfuric diamide]
70 | < 10 | NCCS(=O)(=O)C(c1nnc(CC2SC(=O)NC2=O)o1)c1nc2ccc(-c3ccc(C(=O)N4CCOCC4)cc3)cc2s1 (centres unmarked) [Example 185, 5-{[5-([(2-aminoethyl)sulfonyl]{6-[4-(4-morpholinylcarbonyl)phenyl]-1,3-benzothiazol-2-yl}methyl)-1,3,4-oxadiazol-2-yl]methyl}-1,3-thiazolidine-2,4-dione]
2370 | 13 | NS(=O)(=O)NCc1nnc(C(c2nc3ccc(C(=O)N4CCOCC4)cc3s2)S(=O)(=O)Cc2ccccc2)o1 (centres unmarked) [Example 189, N-((5-((Benzylsulfonyl)(6-(4-morpholinylcarbonyl)-1,3-benzothiazol-2-yl)methyl)-1,3,4-oxadiazol-2-yl)methyl)sulfamide]
418 | < 10 | CS(=O)(=O)C(c1nnc(CC2SC(=O)NC2=O)o1)c1nc2ccc(C#N)cc2s1 (centres unmarked) [Example 190, 2-((5-((2,4-Dioxo-1,3-thiazolidin-5-yl)methyl)-1,3,4-oxadiazol-2-yl)(methylsulfonyl)methyl)-1,3-benzothiazole-6-carbonitrile]
81 | < 10 | CC1(O)CN(C(=O)c2cccc(-c3ccc4nc(C(c5nnc(CNS(N)(=O)=O)o5)S(=O)(=O)CCC(F)(F)F)sc4c3)c2)C1 (centres unmarked) [Example 192, N-((5-((6-(3-((3-Hydroxy-3-methyl-1-azetidinyl)carbonyl)phenyl)-1,3-benzothiazol-2-yl)((3,3,3-trifluoropropyl)sulfonyl)methyl)-1,3,4-oxadiazol-2-yl)methyl)sulfamide]

More lines, now with the values behind:

SMILES | IC50 (hepatic lipase (HL)) [nM] | IC50 (Endothelial lipase (EL)) [nM]
CS(=O)(=O)C(c1nnc(CC2SC(=O)NC2=O)o1)c1nc2ccc(-c3cnc(O)nc3)cc2s1 (centres unmarked) [Example 182, 5-((5-((Methylsulfonyl)(6-(2-oxo-1,2-dihydro-5-pyrimidinyl)-1,3-benzothiazol-2-yl)methyl)-1,3,4-oxadiazol-2-yl)methyl)-1,3-thiazolidine-2,4-dione] | 84 | < 10
NCCS(=O)(=O)C(c1nnc(CC2SC(=O)NC2=O)o1)c1nc2ccc(-c3ccccc3)cc2s1 (centres unmarked) [Example 184, 5-((5-(((2-aminoethyl)sulfonyl)(6-phenyl-1,3-benzothiazol-2-yl)methyl)-1,3,4-oxadiazol-2-yl)methyl)-1,3-thiazolidine-2,4-dione] | < 10 | < 10
NCCS(=O)(=O)C(c1nnc(CC2SC(=O)NC2=O)o1)c1nc2cc(F)c(-c3ccccc3)cc2s1 (centres unmarked) [Example 186, 5-((5-(((2-aminoethyl)sulfonyl)(5-fluoro-6-phenyl-1,3-benzothiazol-2-yl)methyl)-1,3,4-oxadiazol-2-yl)methyl)-1,3-thiazolidine-2,4-dione] | 49 | < 10
NCCS(=O)(=O)C(c1nnc(CNS(N)(=O)=O)o1)c1nc2ccc(-c3ccccc3)cc2s1 (centres unmarked) [Example 187, N-[(5-{[(2-aminoethyl)sulfonyl](6-phenyl-1,3-benzothiazol-2-yl)methyl}-1,3,4-oxadiazol-2-yl)methyl] sulfuric diamide] | 12 | < 10
NS(=O)(=O)NCc1nnc(C(c2nc3ccc(-c4cccc(C(=O)O)c4)cc3s2)S(=O)(=O)CCC(F)(F)F)o1 (centres unmarked) [Example 191, 3-(2-((5-((Sulfamoylamino)methyl)-1,3,4-oxadiazol-2-yl)((3,3,3-trifluoropropyl)sulfonyl)methyl)-1,3-benzothiazol-6-yl)benzoic acid] | 2670 | 15
